# According to ChEMBL document CHEMBL3885881, “DrugMatrix”:
# Species on record: Rattus norvegicus
# Experiment: DrugMatrix - Regimen: Daily Repeat
# Assay type: toxicity, organism-based, Sprague-Dawley
# Design: regimen Daily Repeat, gender Male, age 6-8 weeks
# Details: in vivo, iv, vehicle 100 % SALINE; for ABSOLUTE BASOPHIL / ABSOLUTE EOSINOPHIL / ABSOLUTE LYMPHOCYTE / ABSOLUTE MONOCYTE / ABSOLUTE SEGMENTED NEUTROPHIL / BASOPHIL / EOSINOPHIL / ERYTHROCYTE COUNT / HEMATOCRIT / HEMOGLOBIN / LEUKOCYTE COUNT / LYMPHOCYTE / MEAN CORPUSCULAR HEMOGLOBIN / MEAN CORPUSCULAR HEMOGLOBIN CONCENTRATION / MEAN CORPUSCULAR VOLUME / MONOCYTE / NEUTROPHIL / NUCLEATED RED BLOOD CELLS / PLATELET COUNT: tissue Blood; for ALANINE AMINOTRANSFERASE / ALBUMIN / ALKALINE PHOSPHATASE / ASPARTATE AMINOTRANSFERASE / BLOOD UREA NITROGEN / CARBON DIOXIDE / CHLORIDE / CHOLESTEROL / CREATINE PHOSPHOKINASE / CREATININE / GLUCOSE / LACTATE DEHYDROGENASE / LIPASE / PHOSPHORUS / POTASSIUM / SODIUM / TOTAL BILIRUBIN / URIC ACID / TOTAL PROTEIN: tissue Plasma
# [1] = 400 mg/kg, 72 h, dose level Low, time 3 day
# [2] = 400 mg/kg, 120 h, dose level Low, time 5 day
# [3] = 1200 mg/kg, 72 h, dose level M1, time 3 day
# [4] = 1200 mg/kg, 120 h, dose level M1, time 5 day
# [5] = 1800 mg/kg, 72 h, dose level High, time 3 day
structure (smiles),measurement,setting,value
NC(CO)(CO)CO [TROMETHAMINE],ABSOLUTE BASOPHIL,[1],0 CELLS/uL
same,ABSOLUTE EOSINOPHIL,[1],233.33 CELLS/uL
same,ABSOLUTE LYMPHOCYTE,[1],15317.33 CELLS/uL
same,ABSOLUTE MONOCYTE,[1],347.33 CELLS/uL
same,ABSOLUTE SEGMENTED NEUTROPHIL,[1],1468.67 CELLS/uL
same,BASOPHIL,[1],0%
same,EOSINOPHIL,[1],1.33%
same,ERYTHROCYTE COUNT,[1],5.74 x10E6/uL
same,HEMATOCRIT,[1],36.9%
same,HEMOGLOBIN,[1],13.67 G/DL
same,LEUKOCYTE COUNT,[1],17.37 x10E3/uL
same,LYMPHOCYTE,[1],88.33%
same,MEAN CORPUSCULAR HEMOGLOBIN,[1],23.87 pg
same,MEAN CORPUSCULAR HEMOGLOBIN CONCENTRATION,[1],37.03 G/DL
same,MEAN CORPUSCULAR VOLUME,[1],64.37 fL
same,MONOCYTE,[1],2%
same,NEUTROPHIL,[1],8.33%
same,NUCLEATED RED BLOOD CELLS,[1],0 /100WBC
same,PLATELET COUNT,[1],1402.67 x10E3/uL
same,ALANINE AMINOTRANSFERASE,[1],55.67 u/L
same,ALBUMIN,[1],4.27 G/DL
same,ALKALINE PHOSPHATASE,[1],354.33 u/L
same,ASPARTATE AMINOTRANSFERASE,[1],97 u/L
same,BLOOD UREA NITROGEN,[1],17.67 mg/dL
same,CARBON DIOXIDE,[1],20 mmol/L
same,CHLORIDE,[1],107 MEQ/L
same,CHOLESTEROL,[1],81.67 mg/dL
same,CREATINE PHOSPHOKINASE,[1],249.33 u/L
same,CREATININE,[1],0.23 mg/dL
same,GLUCOSE,[1],184.67 mg/dL
same,LACTATE DEHYDROGENASE,[1],286.33 u/L
same,LIPASE,[1],9.33 u/L
same,PHOSPHORUS,[1],14.23 mg/dL
same,POTASSIUM,[1],7.13 MEQ/L
same,SODIUM,[1],150.03 MEQ/L
same,TOTAL BILIRUBIN,[1],0.23 mg/dL
same,URIC ACID,[1],2.83 mg/dL
same,ABSOLUTE BASOPHIL,[2],0 CELLS/uL
same,ABSOLUTE EOSINOPHIL,[2],193.67 CELLS/uL
same,ABSOLUTE LYMPHOCYTE,[2],13973.67 CELLS/uL
same,ABSOLUTE MONOCYTE,[2],314 CELLS/uL
same,ABSOLUTE SEGMENTED NEUTROPHIL,[2],1218.67 CELLS/uL
same,BASOPHIL,[2],0%
same,EOSINOPHIL,[2],1.33%
same,ERYTHROCYTE COUNT,[2],5.88 x10E6/uL
same,HEMATOCRIT,[2],36.53%
same,HEMOGLOBIN,[2],13.73 G/DL
same,LEUKOCYTE COUNT,[2],15.7 x10E3/uL
same,LYMPHOCYTE,[2],89%
same,MEAN CORPUSCULAR HEMOGLOBIN,[2],23.33 pg
same,MEAN CORPUSCULAR HEMOGLOBIN CONCENTRATION,[2],37.6 G/DL
same,MEAN CORPUSCULAR VOLUME,[2],62.13 fL
same,MONOCYTE,[2],2%
same,NEUTROPHIL,[2],7.67%
same,NUCLEATED RED BLOOD CELLS,[2],0 /100WBC
same,PLATELET COUNT,[2],1369.33 x10E3/uL
same,ALANINE AMINOTRANSFERASE,[2],59 u/L
same,ALBUMIN,[2],4.13 G/DL
same,ALKALINE PHOSPHATASE,[2],352 u/L
same,ASPARTATE AMINOTRANSFERASE,[2],100.33 u/L
same,BLOOD UREA NITROGEN,[2],18 mg/dL
same,CARBON DIOXIDE,[2],26.67 mmol/L
same,CHLORIDE,[2],105 MEQ/L
same,CHOLESTEROL,[2],63.33 mg/dL
same,CREATINE PHOSPHOKINASE,[2],312.67 u/L
same,CREATININE,[2],0.17 mg/dL
same,GLUCOSE,[2],152 mg/dL
same,LACTATE DEHYDROGENASE,[2],490 u/L
same,LIPASE,[2],8 u/L
same,PHOSPHORUS,[2],13.27 mg/dL
same,POTASSIUM,[2],6.29 MEQ/L
same,SODIUM,[2],147.27 MEQ/L
same,TOTAL BILIRUBIN,[2],0.13 mg/dL
same,TOTAL PROTEIN,[2],6.23 G/DL
same,URIC ACID,[2],1.6 mg/dL
same,ABSOLUTE BASOPHIL,[3],0 CELLS/uL
same,ABSOLUTE EOSINOPHIL,[3],114.67 CELLS/uL
same,ABSOLUTE LYMPHOCYTE,[3],5662 CELLS/uL
same,ABSOLUTE MONOCYTE,[3],0 CELLS/uL
same,ABSOLUTE SEGMENTED NEUTROPHIL,[3],823.33 CELLS/uL
same,BASOPHIL,[3],0%
same,EOSINOPHIL,[3],1.67%
same,ERYTHROCYTE COUNT,[3],4.96 x10E6/uL
same,HEMATOCRIT,[3],32.13%
same,HEMOGLOBIN,[3],12.23 G/DL
same,LEUKOCYTE COUNT,[3],6.6 x10E3/uL
same,LYMPHOCYTE,[3],86%
same,MEAN CORPUSCULAR HEMOGLOBIN,[3],24.7 pg
same,MEAN CORPUSCULAR HEMOGLOBIN CONCENTRATION,[3],38.17 G/DL
same,MEAN CORPUSCULAR VOLUME,[3],64.73 fL
same,MONOCYTE,[3],0%
same,NEUTROPHIL,[3],12.33%
same,NUCLEATED RED BLOOD CELLS,[3],0 /100WBC
same,PLATELET COUNT,[3],1106 x10E3/uL
same,ALANINE AMINOTRANSFERASE,[3],48.67 u/L
same,ALBUMIN,[3],4.2 G/DL
same,ALKALINE PHOSPHATASE,[3],396.33 u/L
same,ASPARTATE AMINOTRANSFERASE,[3],124 u/L
same,BLOOD UREA NITROGEN,[3],14.67 mg/dL
same,CARBON DIOXIDE,[3],28 mmol/L
same,CHLORIDE,[3],101.67 MEQ/L
same,CHOLESTEROL,[3],82 mg/dL
same,CREATINE PHOSPHOKINASE,[3],177.33 u/L
same,CREATININE,[3],0.16 mg/dL
same,GLUCOSE,[3],166.33 mg/dL
same,LACTATE DEHYDROGENASE,[3],103 u/L
same,LIPASE,[3],8.33 u/L
same,PHOSPHORUS,[3],11.1 mg/dL
same,POTASSIUM,[3],5.72 MEQ/L
same,SODIUM,[3],148.3 MEQ/L
same,TOTAL BILIRUBIN,[3],0.1 mg/dL
same,TOTAL PROTEIN,[3],6.23 G/DL
same,URIC ACID,[3],0.7 mg/dL
same,ABSOLUTE BASOPHIL,[4],0 CELLS/uL
same,ABSOLUTE EOSINOPHIL,[4],321 CELLS/uL
same,ABSOLUTE LYMPHOCYTE,[4],13922 CELLS/uL
same,ABSOLUTE MONOCYTE,[4],0 CELLS/uL
same,ABSOLUTE SEGMENTED NEUTROPHIL,[4],2357 CELLS/uL
same,BASOPHIL,[4],0%
same,EOSINOPHIL,[4],2%
same,ERYTHROCYTE COUNT,[4],5.71 x10E6/uL
same,HEMATOCRIT,[4],35.9%
same,HEMOGLOBIN,[4],13.45 G/DL
same,LEUKOCYTE COUNT,[4],16.6 x10E3/uL
same,LYMPHOCYTE,[4],84%
same,MEAN CORPUSCULAR HEMOGLOBIN,[4],23.6 pg
same,MEAN CORPUSCULAR HEMOGLOBIN CONCENTRATION,[4],37.45 G/DL
same,MEAN CORPUSCULAR VOLUME,[4],62.95 fL
same,MONOCYTE,[4],0%
same,NEUTROPHIL,[4],14%
same,NUCLEATED RED BLOOD CELLS,[4],0 /100WBC
same,PLATELET COUNT,[4],1326 x10E3/uL
same,ALANINE AMINOTRANSFERASE,[4],51.5 u/L
same,ALBUMIN,[4],4.3 G/DL
same,ALKALINE PHOSPHATASE,[4],460.5 u/L
same,ASPARTATE AMINOTRANSFERASE,[4],147 u/L
same,BLOOD UREA NITROGEN,[4],19.5 mg/dL
same,CARBON DIOXIDE,[4],26.5 mmol/L
same,CHLORIDE,[4],105.5 MEQ/L
same,CHOLESTEROL,[4],61.5 mg/dL
same,CREATINE PHOSPHOKINASE,[4],173 u/L
same,CREATININE,[4],0.2 mg/dL
same,GLUCOSE,[4],161 mg/dL
same,LACTATE DEHYDROGENASE,[4],131.5 u/L
same,LIPASE,[4],7.5 u/L
same,PHOSPHORUS,[4],12.6 mg/dL
same,POTASSIUM,[4],5.85 MEQ/L
same,SODIUM,[4],148.4 MEQ/L
same,TOTAL BILIRUBIN,[4],0.15 mg/dL
same,TOTAL PROTEIN,[4],6.15 G/DL
same,URIC ACID,[4],1.35 mg/dL
same,ABSOLUTE BASOPHIL,[5],0 CELLS/uL
same,ABSOLUTE EOSINOPHIL,[5],0 CELLS/uL
same,ABSOLUTE LYMPHOCYTE,[5],11188.5 CELLS/uL
same,ABSOLUTE MONOCYTE,[5],305.5 CELLS/uL
same,ABSOLUTE SEGMENTED NEUTROPHIL,[5],3356 CELLS/uL
same,BASOPHIL,[5],0%
same,EOSINOPHIL,[5],0%
same,ERYTHROCYTE COUNT,[5],5.2 x10E6/uL
same,HEMATOCRIT,[5],31.8%
same,HEMOGLOBIN,[5],12.25 G/DL
same,LEUKOCYTE COUNT,[5],14.85 x10E3/uL
same,LYMPHOCYTE,[5],75%
same,MEAN CORPUSCULAR HEMOGLOBIN,[5],23.65 pg
same,MEAN CORPUSCULAR HEMOGLOBIN CONCENTRATION,[5],38.5 G/DL
same,MEAN CORPUSCULAR VOLUME,[5],61.4 fL
same,MONOCYTE,[5],2%
same,NEUTROPHIL,[5],23%
same,NUCLEATED RED BLOOD CELLS,[5],0 /100WBC
same,PLATELET COUNT,[5],1215.5 x10E3/uL
same,ALANINE AMINOTRANSFERASE,[5],64.5 u/L
same,ALBUMIN,[5],4.05 G/DL
same,ALKALINE PHOSPHATASE,[5],290 u/L
same,ASPARTATE AMINOTRANSFERASE,[5],190 u/L
same,BLOOD UREA NITROGEN,[5],19.5 mg/dL
same,CARBON DIOXIDE,[5],24.5 mmol/L
same,CHLORIDE,[5],105.5 MEQ/L
same,CHOLESTEROL,[5],107 mg/dL
same,CREATINE PHOSPHOKINASE,[5],336.5 u/L
same,CREATININE,[5],0.22 mg/dL
same,GLUCOSE,[5],149.5 mg/dL
same,LACTATE DEHYDROGENASE,[5],446 u/L
same,LIPASE,[5],8.5 u/L
same,PHOSPHORUS,[5],13.45 mg/dL
same,POTASSIUM,[5],6.05 MEQ/L
same,SODIUM,[5],147.25 MEQ/L
same,TOTAL BILIRUBIN,[5],0.2 mg/dL
same,TOTAL PROTEIN,[5],6.15 G/DL
same,URIC ACID,[5],0.95 mg/dL
